According to the supplement of paper PMC11061612:

What was measured:
Assay in all cases: Bliss excess, mean over the matrix (fraction); higher = more synergy
[1] = test system: HDQ-P1 (Breast Carcinoma)
Method in brief: (§1)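 After 24 hours at 37°C and 5% CO2 in 1536-well plates, cells in DMEM/F12 or RPMI plus 10% FBS received two-drug dose matrices for 72 hours. Viability came from CellTiter-Glo 2.0 luminescence and was scaled as inhibition, anchored at 0 by vehicle wells and at 1 by blank wells. Combination Emax is taken as the second-highest inhibition in the matrix, and Bliss excess as the observed combination effect less EA + EB − EA·EB, with EA and EB the single-agent effects.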

[2] = test system: KCL-22 (Chronic Myelogenous Leukemia)
Method in brief: as §1

LN-18 (Glioblastoma) = test system: LN-18 (Glioblastoma)
Method in brief: as §1

MEL-JUSO (Melanoma) = test system: MEL-JUSO (Melanoma)
Method in brief: as §1

[3] = test system: MFM-223 (Breast Carcinoma)
Method in brief: as §1

[4] = test system: MS751 (Cervical Carcinoma)
Method in brief: as §1

[5] = test system: SU-DHL-8 (B-Cell Non-Hodgkin's Lymphoma)
Method in brief: as §1

[6] = test system: TE-6 (Esophageal Squamous Cell Carcinoma)
Method in brief: as §1

U251 (Low Grade Glioma) = test system: U251 (Low Grade Glioma)
Method in brief: as §1

[7] = test system: BL-41 (Burkitt's Lymphoma)
Method in brief: as §1

[8] = test system: CAMA-1 (Breast Carcinoma)
Method in brief: as §1

[9] = test system: DND-41 (T-Lymphoblastic Leukemia)
Method in brief: as §1

ES1 (Ewing's Sarcoma) = test system: ES1 (Ewing's Sarcoma)
Method in brief: as §1

ES8 (Ewing's Sarcoma) = test system: ES8 (Ewing's Sarcoma)
Method in brief: as §1

[10] = test system: L-540 (Hodgkin's Lymphoma)
Method in brief: as §1

NCI-H2818 (Mesothelioma) = test system: NCI-H2818 (Mesothelioma)
Method in brief: as §1

[11] = test system: SR (Other Blood Carcinomas)
Method in brief: as §1

[12] = test system: SW837 (Colorectal Carcinoma)
Method in brief: as §1

WM-115 (Melanoma) = test system: WM-115 (Melanoma)
Method in brief: as §1

Row | SMILES | Bliss excess [1] | Bliss excess [2] | Bliss excess (LN-18 (Glioblastoma)) | Bliss excess (MEL-JUSO (Melanoma)) | Bliss excess [3] | Bliss excess [4] | Bliss excess [5] | Bliss excess [6] | Bliss excess (U251 (Low Grade Glioma)) | Bliss excess [7] | Bliss excess [8] | Bliss excess [9] | Bliss excess (ES1 (Ewing's Sarcoma)) | Bliss excess (ES8 (Ewing's Sarcoma)) | Bliss excess [10] | Bliss excess (NCI-H2818 (Mesothelioma)) | Bliss excess [11] | Bliss excess [12] | Bliss excess (WM-115 (Melanoma))
1 | COc1nnc2ccc(N3CCC(c4ccc(OCCN5CCN(C)C(=O)[C@H]5C)cc4)CC3)nn12 [AZD5153] + CN(CC[C@H](CSC1=CC=CC=C1)NC2=C(C=C(C=C2)S(=O)(=O)NC(=O)C3=CC=C(C=C3)N4CCC(CC4)[C@H](C5=CC=CC=C5C6=CC=C(C=C6)Cl)O)S(=O)(=O)C(F)(F)F)CCO [AZD4320] (first compound max 1 µM, 7x7, partner max 1 µM) | 0.0844 | 0.078 | -0.0251 | 0.0122 | -0.0065 | 0.0372 | -0.128 | -0.0157 | 0.0547 |  |  |  |  |  |  |  |  |  | 
2 | NC1(C(=O)N[C@@H](CCO)c2ccc(Cl)cc2)CCN(c2ncnc3[nH]ccc23)CC1 [Capivasertib] + CCN(CCO)CCCOc1ccc2c(Nc3cc(CC(=O)Nc4cccc(F)c4)[nH]n3)ncnc2c1 [AZD2811] (first compound max 10 µM, 7x7, partner max 1 µM) | -0.0077 | 0.0544 | -0.022 | -0.0083 | -0.0072 | 0.0515 | 0.0078 | -0.0003 | 0.0469 | -0.123 | 0.0051 | 0.0071 | -0.0207 | -0.0394 | 0.0547 | -0.0676 | -0.0053 | -0.0646 | -0.0223
3 | CC(=O)c1c(C)c2cnc(Nc3ccc(N4CCNCC4)cn3)nc2n(C2CCCC2)c1=O [Palbociclib] + Cn1cnc2c(F)c(Nc3ccc(Br)cc3Cl)c(C(=O)NOCCO)cc21 [Selumetinib] (first compound max 10 µM, 7x7, partner max 10 µM) | -0.0555 | -0.0021 | 0.0293 | 0.0028 | 0.0341 | -0.0445 | 0.0147 | 0.0172 | -0.0013 | -0.0131 | -0.027 | 0.0601 | -0.0366 | 0.041 | -0.071 | -0.0013 | 0.0352 | 0.0075 | -0.0126
4 | C[C@@H](c1ccc2nccn2c1)n1nnc2ncc(-c3cnn(C)c3)nc21 [Savolitinib] + CN(CC[C@H](CSC1=CC=CC=C1)NC2=C(C=C(C=C2)S(=O)(=O)NC(=O)C3=CC=C(C=C3)N4CCC(CC4)[C@H](C5=CC=CC=C5C6=CC=C(C=C6)Cl)O)S(=O)(=O)C(F)(F)F)CCO [AZD4320] (first compound max 1 µM, 7x7, partner max 1 µM) | -0.0432 | -0.0201 | -0.0406 | -0.0487 | -0.0726 | 0.0315 | 0.0282 | -0.0312 | -0.0546 |  |  |  |  |  |  |  |  |  | 
5 | C[C@@H](c1ccc2nccn2c1)n1nnc2ncc(-c3cnn(C)c3)nc21 [Savolitinib] + CC1(C)CCC(CN2CCN(c3ccc(C(=O)NS(=O)(=O)c4ccc(NCC5CCOCC5)c([N+](=O)[O-])c4)c(Oc4cnc5[nH]ccc5c4)c3)CC2)=C(c2ccc(Cl)cc2)C1 [Venetoclax] (first compound max 1 µM, 7x7, partner max 1 µM) | -0.085 | -0.0352 | -0.0265 | -0.0919 | -0.0414 | -0.028 | -0.0419 | -0.0559 | -0.0938 | -0.0365 | -0.0211 | -0.0082 | -0.0515 | 0.0191 | 0.0201 | -0.0411 | 0.0747 | -0.0813 | -0.0346
6 | NC1(C(=O)N[C@@H](CCO)c2ccc(Cl)cc2)CCN(c2ncnc3[nH]ccc23)CC1 [Capivasertib] + CC(C)n1c(=O)n(C)c2cnc3cc(F)c(-c4ccc(OCCCN5CCCCC5)nc4)cc3c21 [AZD1390] (first compound max 10 µM, 7x7, partner max 0.3 µM) | -0.0442 | -0.0116 | -0.0325 | -0.0784 | -0.0098 | 0.0033 | -0.0156 | -0.134 | -0.0549 | -0.193 | -0.0558 | -0.0595 | -0.111 | -0.0318 | 0.0167 | -0.0447 | -0.0452 | -0.0461 | -0.0368
7 | NC1(C(=O)N[C@@H](CCO)c2ccc(Cl)cc2)CCN(c2ncnc3[nH]ccc23)CC1 [Capivasertib] + C[C@@H]1COCCN1C2=NC(=NC(=C2)C3(CC3)[S@](=N)(=O)C)C4=C5C=CNC5=NC=C4 [AZD6738] (first compound max 10 µM, 7x7, partner max 10 µM) | -0.0178 | 0.0044 | -0.0463 | 0.0083 | -0.0626 | -0.0156 | -0.0045 | -0.0476 | -0.0006 | -0.0552 | -0.0149 | -0.0221 | -0.0448 | 0.0038 | -0.0059 | -0.0315 | 0.016 | -0.0862 | -0.0502
8 | NC1(C(=O)N[C@@H](CCO)c2ccc(Cl)cc2)CCN(c2ncnc3[nH]ccc23)CC1 [Capivasertib] + CC(=O)c1c(C)c2cnc(Nc3ccc(N4CCNCC4)cn3)nc2n(C2CCCC2)c1=O [Palbociclib] (first compound max 10 µM, 7x7, partner max 10 µM) | -0.0092 | 0.0438 | 0.0368 | -0.0137 | 0.0091 | -0.0222 | 0.0646 | -0.0195 | 0.0007 | -0.0275 | 0.052 | -0.0146 | 0.0697 | 0.0848 | -0.0243 | -0.0025 | 0.0289 | -0.0531 | -0.0469
9 | Cc1nc(Nc2ncc(C(=O)Nc3c(C)cccc3Cl)s2)cc(N2CCN(CCO)CC2)n1 [Dasatinib] + CC(=O)Nc1cccc(-n2c(=O)n(C3CC3)c(=O)c3c(Nc4ccc(I)cc4F)n(C)c(=O)c(C)c32)c1 [Trametinib] (first compound max 2 µM, 7x7, partner max 1 µM) | -0.0033 | -0.0501 | -0.0433 | -0.0878 | -0.0546 | -0.0099 | -0.0242 | -0.0255 | 0.0682 | 0.0075 | -0.0382 | -0.0333 | -0.0643 | 0.0243 | -0.0484 | -0.0109 | -0.0069 | 0.0448 | 0.118
10 | Cn1cnc2c(F)c(Nc3ccc(Br)cc3Cl)c(C(=O)NOCCO)cc21 [Selumetinib] + CC(C)n1c(=O)n(C)c2cnc3cc(F)c(-c4ccc(OCCCN5CCCCC5)nc4)cc3c21 [AZD1390] (first compound max 10 µM, 7x7, partner max 0.3 µM) | -0.0456 | 0.0847 | -0.0148 | -0.0291 | -0.033 | -0.0171 | -0.0201 | -0.0528 | -0.0361 | 0.0029 | -0.0429 | -0.0022 | -0.0365 | -0.0529 | -0.0407 | -0.0237 | -0.0171 | -0.0343 | -0.0442
11 | NC1(C(=O)N[C@@H](CCO)c2ccc(Cl)cc2)CCN(c2ncnc3[nH]ccc23)CC1 [Capivasertib] + COc1nnc2ccc(N3CCC(c4ccc(OCCN5CCN(C)C(=O)[C@H]5C)cc4)CC3)nn12 [AZD5153] (first compound max 10 µM, 7x7, partner max 1 µM) | 0.0651 | 0.0441 | 0.0494 | -0.0049 | -0.0302 | -0.0065 | 0.0407 | -0.0708 | 0.0284 | 0.036 | 0.106 | 0.0339 | 0.035 | 0.0894 | -0.0794 | 0.0025 | -0.0166 | -0.0301 | 0.0031
12 | Cn1cnc2c(F)c(Nc3ccc(Br)cc3Cl)c(C(=O)NOCCO)cc21 [Selumetinib] + C=CCn1c(=O)c2cnc(Nc3ccc(N4CCN(C)CC4)cc3)nc2n1-c1cccc(C(C)(C)O)n1 [AZD1775] (first compound max 10 µM, partner max 1 µM) | -0.0453 | 0.0242 | -0.0103 | -0.0388 | -0.0831 | 0.0171 | -0.0846 | 0.0165 | -0.0365 | -0.0162 | -0.0309 | -0.0248 | -0.0255 | -0.185 | -0.0374 | -0.0498 | -0.0132 | -0.0207 | -0.0731
13 | Cn1cnc2c(F)c(Nc3ccc(Br)cc3Cl)c(C(=O)NOCCO)cc21 [Selumetinib] + C[C@@H]1COCCN1C2=NC(=NC(=C2)C3(CC3)[S@](=N)(=O)C)C4=C5C=CNC5=NC=C4 [AZD6738] (first compound max 10 µM, 7x7, partner max 10 µM) | 0.0228 | -0.0129 | -0.0318 | 0.0935 | -0.0412 | 0.0516 | -0.0454 | 0.0221 | -0.0149 | -0.0299 | -0.0506 | -0.0233 | -0.0257 | -0.069 | -0.0415 | -0.0144 | -0.0169 | -0.095 | 0.0116
14 | CS(=O)(=O)CCNCc1ccc(-c2ccc3ncnc(Nc4ccc(OCc5cccc(F)c5)c(Cl)c4)c3c2)o1 [Lapatinib] + C[C@@H](Oc1cc(-c2cnn(C3CCNCC3)c2)cnc1N)c1c(Cl)ccc(F)c1Cl [Crizotinib] (first compound max 10 µM, 7x7, partner max 10 µM) | -0.0144 | 0.0178 | -0.0342 | -0.034 | 0.0148 | 0.0207 | 0.0546 | -0.0111 | -0.0586 | -0.0236 | -0.0178 | -0.0272 | -0.0346 | -0.0424 | -0.0731 | -0.0019 | 0.019 | -0.0345 | -0.0237
15 | CC(=O)c1c(C)c2cnc(Nc3ccc(N4CCNCC4)cn3)nc2n(C2CCCC2)c1=O [Palbociclib] + CN(CC[C@H](CSC1=CC=CC=C1)NC2=C(C=C(C=C2)S(=O)(=O)NC(=O)C3=CC=C(C=C3)N4CCC(CC4)[C@H](C5=CC=CC=C5C6=CC=C(C=C6)Cl)O)S(=O)(=O)C(F)(F)F)CCO [AZD4320] (first compound max 10 µM, 7x7, partner max 1 µM) | -0.0735 | -0.0299 | -0.0081 | -0.099 | -0.0021 | -0.0552 | -0.106 | -0.0596 | -0.0989 |  |  |  |  |  |  |  |  |  | 
